Several values for one entry are separate records, joined by “and”; a condition that tells them apart may be missing. Equal values may be shown once. Read-outs that look alike come from different tables or passages of the source.
Assays:
Type in all cases: cell-based
[1] = target: T1, TRPM8 I846V (Mus musculus, UniProt Q8R4D5, I846V); test: whole-cell patch-clamp and thermodynamic mutant cycle analysis
T1 construct: expressed in transfected cells; host or cells: HEK293T
Experimental: (§1) Murine TRPM8 was used in this study. Point mutations were made by Fast Mutagenesis Kit V2 (SBS Genetech). Primers used to generate point mutations are summarized in Supplementary Table 2. All mutations were confirmed by sequencing.
(§2) HEK293T cells purchased from Kunming Cell Bank, Kunming Institute of Zoology, Chinese Academy of Sciences (ATCC, CRL-3216) were cultured in Dulbecco’s modified Eagle’s medium supplemented with 20 mM L-glutamine and 10% fetal bovine serum. Cells were transiently transfected with cDNA constructs by Lipofectamine 3000 (Life Technologies) following the manufacturer’s protocol. Patch-clamp recordings were performed 1–2 days after transfection.
(§3) Patch-clamp recordings were performed with a HEKA EPC10 amplifier controlled by PatchMaster software (HEKA). Whole-cell recordings were performed at ±80 mV. Patch pipettes were prepared from borosilicate glass and fire-polished to resistance of ~4 MΩ. For whole-cell recording, serial resistance was compensated by 60%. For single-channel recordings, patch pipettes were fire-polished to a higher resistance of 6-to-10 MΩ and then recorded in the inside-out configuration. To maximize the chance of obtaining a patch with only one channel, single-channel recordings were performed about 8 h after transfection. A solution with 130 mM NaCl, 10 mM glucose, 0.2 mM EDTA, and 3 mM HEPES (pH 7.2) was used in both bath and pipette for either whole-cell or single-channel recordings. Membrane potential was clamped at +80 mV for single-channel recordings. Current was sampled at 10 kHz and filtered at 2.9 kHz. All recordings were performed at room temperature (22 °C) with the maximum variation of 1 °C.
(§4) Ligands such as menthol and its analogs were perfused to membrane patch by a gravity-driven system (RSC-200, Bio-Logic). Bath and ligand solution were delivered through separate tubes to minimize the mixing of solutions. Patch pipette was placed in front of the perfusion tube outlet.
(§5) Data from whole-cell recordings were analyzed in Igor Pro version 6.1 (WaveMatrix). EC50 values were derived from fitting a Hill equation to the concentration–response relationship. Changes in EC50 by point mutation may be caused by either perturbation of ligand bind or channel gating or both. To distinguish these possibilities, dissociation constant (Kd) for ligand binding was estimated assuming the following gating scheme:1 C0↔KdC1↔LO, where L is the equilibrium constant for the final closed-to-open transition.
(§6) To perform thermodynamic cycle analysis, Kd values of four channel-ligand combinations (WT channel, menthol: Kd _1; Mutant channel, menthol: Kd _2; WT channel, menthol analog: Kd _3; Mutant channel, menthol analog: Kd _4) were determined separately. The strength of coupling was determined by the coupling energy (kT multiplied by LnΩ, where k is the Boltzmann constant and T is temperature in Kelvin). LnΩ was calculated by Eq. (2) as[51]2 LnΩ=LnKd_1⋅Kd_4/Kd_2⋅Kd_3.

[2] = target: T2, TRPM8 F839A (Mus musculus, UniProt Q8R4D5, F839A); test: as above
T2 construct: expressed in transfected cells; host or cells: HEK293T
T2 sequence (Q8R4D5 whole entry F839A): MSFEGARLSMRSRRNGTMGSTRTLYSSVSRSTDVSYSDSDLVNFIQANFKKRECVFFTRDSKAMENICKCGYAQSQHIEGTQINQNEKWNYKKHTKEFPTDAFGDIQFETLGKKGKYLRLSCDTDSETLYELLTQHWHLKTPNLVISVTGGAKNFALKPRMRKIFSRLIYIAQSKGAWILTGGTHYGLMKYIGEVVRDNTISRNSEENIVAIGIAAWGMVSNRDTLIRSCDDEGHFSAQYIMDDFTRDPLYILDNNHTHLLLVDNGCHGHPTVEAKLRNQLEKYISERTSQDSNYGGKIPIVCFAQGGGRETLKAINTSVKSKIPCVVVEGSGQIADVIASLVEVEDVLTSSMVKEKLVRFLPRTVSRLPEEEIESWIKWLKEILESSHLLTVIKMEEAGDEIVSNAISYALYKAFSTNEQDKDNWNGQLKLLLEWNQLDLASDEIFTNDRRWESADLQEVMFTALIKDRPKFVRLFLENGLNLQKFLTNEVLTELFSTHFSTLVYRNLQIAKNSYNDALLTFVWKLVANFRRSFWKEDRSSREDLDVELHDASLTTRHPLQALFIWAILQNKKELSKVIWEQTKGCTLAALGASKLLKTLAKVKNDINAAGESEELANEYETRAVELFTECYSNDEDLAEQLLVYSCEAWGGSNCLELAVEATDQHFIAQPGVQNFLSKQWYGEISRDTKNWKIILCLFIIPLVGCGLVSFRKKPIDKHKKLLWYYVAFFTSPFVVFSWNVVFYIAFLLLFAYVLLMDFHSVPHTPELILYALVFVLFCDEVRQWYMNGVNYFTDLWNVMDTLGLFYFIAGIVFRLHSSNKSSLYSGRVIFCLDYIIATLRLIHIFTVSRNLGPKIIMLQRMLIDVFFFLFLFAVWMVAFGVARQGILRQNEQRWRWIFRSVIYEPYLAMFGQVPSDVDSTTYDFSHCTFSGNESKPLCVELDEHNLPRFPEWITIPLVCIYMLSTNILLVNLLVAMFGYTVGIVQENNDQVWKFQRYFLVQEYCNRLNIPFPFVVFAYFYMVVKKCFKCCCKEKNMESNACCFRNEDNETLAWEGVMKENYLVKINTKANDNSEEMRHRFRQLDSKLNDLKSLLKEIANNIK
Experimental: as §1, §2, §3, §4, §5, §6

[3] = target: T3, TRPM8 V775A (Mus musculus, UniProt Q8R4D5, V775A); test: as above
T3 construct: expressed in transfected cells; host or cells: HEK293T
T3 sequence (Q8R4D5 whole entry V775A): as the sequence (Q8R4D5 whole entry F839A) above, with V775A, A839F counted along it
Experimental: as §1, §2, §3, §4, §5, §6

[4] = target: T4, TRPM8 Y745F (Mus musculus, UniProt Q8R4D5, Y745F); test: as above
T4 construct: expressed in transfected cells; host or cells: HEK293T
T4 sequence (Q8R4D5 whole entry Y745F): as the sequence (Q8R4D5 whole entry F839A) above, with Y745F, A839F counted along it
Experimental: as §1, §2, §3, §4, §5, §6

[5] = target: T5, TRPM8 L843V (Mus musculus, UniProt Q8R4D5, L843V); test: as above
T5 construct: expressed in transfected cells; host or cells: HEK293T
T5 sequence (Q8R4D5 whole entry L843V): as the sequence (Q8R4D5 whole entry F839A) above, with A839F, L843V counted along it
Experimental: as §1, §2, §3, §4, §5, §6

[6] = target: T6, TRPM8 L843A (Mus musculus, UniProt Q8R4D5, L843A); test: as above
T6 construct: expressed in transfected cells; host or cells: HEK293T
T6 sequence (Q8R4D5 whole entry L843A): as the sequence (Q8R4D5 whole entry F839A) above, with A839F, L843A counted along it
Experimental: as §1, §2, §3, §4, §5, §6

[7] = target: T7, TRPM8 L843I (Mus musculus, UniProt Q8R4D5, L843I); test: as above
T7 construct: expressed in transfected cells; host or cells: HEK293T
T7 sequence (Q8R4D5 whole entry L843I): as the sequence (Q8R4D5 whole entry F839A) above, with A839F, L843I counted along it
Experimental: as §1, §2, §3, §4, §5, §6

[8] = target: T8, wild-type TRPM8 (Mus musculus, UniProt Q8R4D5); test: whole-cell patch-clamp recording of ligand activation; conditions: WT
T8 construct: expressed in transfected cells; host or cells: HEK293T
T8 sequence (Q8R4D5 whole entry): as the sequence (Q8R4D5 whole entry F839A) above, with A839F counted along it
Experimental: Murine TRPM8 was used in this study. Point mutations were made by Fast Mutagenesis Kit V2 (SBS Genetech). Primers used to generate point mutations are summarized in Supplementary Table 2.
Cells were transiently transfected with cDNA constructs by Lipofectamine 3000 (Life Technologies) following the manufacturer’s protocol. Patch-clamp recordings were performed 1–2 days after transfection.
as §3, §4
as §5, with “Changes in EC50 by point mutation may be caused by either perturbation of ligand bind or channel gating or both.” left out

[9] = target: T8, wild-type TRPM8; test: open probability from noise analysis of macroscopic current and single-channel recordings; conditions: wild-type TRPM8; near saturating concentration (menthol 500 µM)
Experimental: as §3
From single-channel recordings, the open probability (Po) was calculated after events detection with a hidden Markov approach in the software QuB[49] (http://www.qub.buffalo.edu/). A dead time of 0.32 ms was imposed. As a complementary approach, Po was also estimated from noise analysis[52] of whole-cell recordings. Briefly, the mean current amplitude (I), the squared deviations in current amplitude from the mean value (σ^2), and the single-channel current (i) were measured experimentally from a membrane patch of ion channels. Then the number of ion channels clamped in that patch (N) was determined as3 N=I^2/i⋅I−σ^2.
The maximum current when each of ion channel is at the open state with a Po of 1 is equal to i × N. Then the open probability was calculated as the ratio between the measured macroscopic current and the maximum current calculated by noise analysis. To estimate channel conductance, current amplitude was estimated from all-point histogram of single-channel recordings.

[10] = mutant cycle menthol vs labelled analog

T1 sequence (Q8R4D5 whole entry I846V): as the sequence (Q8R4D5 whole entry F839A) above, with A839F, I846V counted along it

SMILES: CC1CCCC(O)C1 (stereo not shown) [3-methylcyclohexanol]
- L (equilibrium constant between closed and open states upon ligand binding), Ave [1]: 5.486
- Ratio X2 (Kd menthol / Kd labelled analog) [1]: 0.0226
- concentration–response curve value, ave ([1]; 100 microM): 0.2999
- concentration–response curve value, single recording ([1]; 100 microM): 0.4 and 0.341 and 0.2563 and 0.2026
- concentration–response curve value, ave ([1]; 500 microM): 0.4287
- concentration–response curve value, single recording ([1]; 500 microM): 0.5097 and 0.4021 and 0.4664 and 0.3363
- concentration–response curve value, ave ([1]; 5000 microM): 0.6797
- concentration–response curve value, single recording ([1]; 5000 microM): 0.6614 and 0.7654 and 0.6405 and 0.6515
- concentration–response curve value, ave ([1]; 10000 microM): 0.686
- concentration–response curve value, single recording ([1]; 10000 microM): 0.6689 and 0.7334 and 0.6291 and 0.7125
- Kd ([1]; calculated from concentration–response curves, read-out: Kd, Ave): 5.29 mM
- concentration–response curve value, ave ([1]; concentration cell empty): 0.07916
- Omega(X1/X2) ([1]; menthol vs labelled analog): 67.65
- Coupling Energy [1, 10]: 4.21 kT
- Kd ([1]; read-out: Kd, single recording): 4.56 mM and 1.6 mM and 2.66 mM and 12.4 mM
- Ratio X2 (Kd menthol / Kd labelled analog) [2]: 0.34
- Omega(X1/X2) ([2]; menthol vs labelled analog): 4.45
- Coupling Energy [2, 10]: 1.49 kT
- Ratio X2 (Kd menthol / Kd labelled analog) [3]: 3.60
- Omega(X1/X2) ([3]; menthol vs labelled analog): 0.43
- Coupling Energy [3, 10]: 0.86 kT
- Ratio X2 (Kd menthol / Kd labelled analog) [4]: 5.57
- Omega(X1/X2) ([4]; menthol vs labelled analog): 0.28
- Coupling Energy [4, 10]: 1.29 kT
- Ratio X2 (Kd menthol / Kd labelled analog) [5]: 1.21
- Omega(X1/X2) ([5]; menthol vs labelled analog): 1.27
- Coupling Energy [5, 10]: 0.24 kT
- Ratio X2 (Kd menthol / Kd labelled analog) [6]: 10.91
- Omega(X1/X2) ([6]; menthol vs labelled analog): 0.14
- Coupling Energy [6, 10]: 1.96 kT
- Ratio X2 (Kd menthol / Kd labelled analog) [7]: 0.32
- Omega(X1/X2) ([7]; menthol vs labelled analog): 4.84
- Coupling Energy [7, 10]: 1.58 kT
- L (equilibrium constant between closed and open states upon ligand binding), Ave [8]: 0.1737
- L, single recording [8]: 0.1532 and 0.192 and 0.1757
- Ratio X1 (Kd menthol / Kd labelled analog) [8]: 1.53
- concentration–response curve value, ave ([8]; 100 microM): 0.03758
- concentration–response curve value, single recording ([8]; 100 microM): 0.03758
- concentration–response curve value, ave ([8]; 500 microM): 0.06444
- concentration–response curve value, single recording ([8]; 500 microM): 0.0748 and 0.0637 and 0.05481
- concentration–response curve value, ave ([8]; 1000 microM): 0.104
- concentration–response curve value, single recording ([8]; 1000 microM): 0.09939 and 0.1207 and 0.09185
- concentration–response curve value, ave ([8]; 5000 microM): 0.1359
- concentration–response curve value, single recording ([8]; 5000 microM): 0.1092 and 0.1503 and 0.1483
- concentration–response curve value, ave ([8]; 10000 microM): 0.1449
- concentration–response curve value, single recording ([8]; 10000 microM): 0.1156 and 0.169 and 0.1502
- Kd ([8]; calculated from concentration–response curves (EC50 and Po max), read-out: Kd, Ave): 631 µM
- Kd ([8]; read-out: Kd, single recording): 270 µM and 723 µM and 899 µM
- maximum open probability (Po max) [9]: much reduced
